# US20080271210A1, “Oryza Sativa Lectin-Like Receptor Kinase 1 (Oslrk1), a Gene Involved in Plant Development” (Temasek Life Sciences Laboratory National University of …, priority 2004, published 2008)
# Tests used:
# [1] = system: Oslrk10; assay: RT-PCR of Oslrks in treated 2 week-old seedlings; format: in vivo, Oryza sativa; conditions: treated vs control
# Description: (§1) RT-PCRs were carried out on RNA samples isolated from 2 week-old seedlings treated with various sugar (FIG. 13), hormone (FIG. 14), and abiotic stresses (FIG. 15) using primers designated to either 3′ or 5′ Untranslated Regions (UTRs) of the 15 Oslrks found in Table 2. For each Oslrk two lanes in the gel are found, the first lane is the control and the second one treatment samples.
# (§2) Table 3 provides a summary of all the above referenced data on the Oslrks, showing the RT-PCR results of various treatments, including sugar, hormone and abiotic stress and northern blot results on various tissues of rice plant grown in normal conditions, and the ESTs, or cDNAs availability in the database. In the table, “I” represents induced expression and “R” represents repressed expression.
# [2] = system: Oslrk2; assay: RT-PCR of Oslrks in treated 2 week-old seedlings; format: in vivo, Oryza sativa; conditions: treated vs control
# Description: as §1, §2
# [3] = system: Oslrk4; assay: RT-PCR of Oslrks in treated 2 week-old seedlings; format: in vivo, Oryza sativa; conditions: treated vs control
# Description: as §1, §2
# [4] = system: Oslrk11; assay: RT-PCR of Oslrks in treated 2 week-old seedlings; format: in vivo, Oryza sativa; conditions: treated vs control
# Description: as §1, §2
# [5] = system: Oslrk5; assay: RT-PCR of Oslrks in treated 2 week-old seedlings; format: in vivo, Oryza sativa; conditions: treated vs control
# Description: as §1, §2
# [6] = system: Oslrk8; assay: RT-PCR of Oslrks in treated 2 week-old seedlings; format: in vivo, Oryza sativa; conditions: treated vs control
# Description: as §1, §2
# [7] = system: Oslrk9; assay: RT-PCR of Oslrks in treated 2 week-old seedlings; format: in vivo, Oryza sativa; conditions: treated vs control
# Description: as §1, §2
# [8] = system: Oslrk14; assay: RT-PCR of Oslrks in treated 2 week-old seedlings; format: in vivo, Oryza sativa; conditions: treated vs control
# Description: as §1, §2
# [9] = system: Oslrk1 mutant seeds and seedlings; assay: Germination and growth of Oslrk1 mutant seeds in galactose/mannose containing media; format: in vivo, Oryza sativa
# Text: (§3) The altered expression of the Oslrk1 by different sugars described above led us to study the response of the mutant to these monosaccharides and sucrose. The WT and the mutant seeds were germinated and grown in Gal, Man, Glu, Fm along with Suc at different concentrations (ranging from 0.1% to 1%) and Suc alone containing medium as a control. The following parameters were taken into account during observation: the shoot length, the number and the length of adventitious roots and the germination rate. […] Out of these three sugars tested, Man was selected as an example as its inhibitory effect was similar in seeds and seedlings of WT and mutant as shown in FIGS. 10A and B. The seed germination was severely affected by Man.
# (§4) At 1.0% of the Gal, the shoot length decreased by half in the mutant, whereas only by 15% in the WT seedlings. […] Apart from this, the germination rate of the WT seeds dropped to 85% whereas in the mutant it dropped to 30%.
# (§5) Germination of WT and mutant seeds in galactose/mannose containing media. WT and mutant seeds were germinated separately on MS medium containing 0.8% agar and 1% sucrose. In addition, D(+)galactose/D(+/−)mannose was added in different concentrations (0.1, 0.2, 0.5, and 1.0%) along with a control (MS with 1% of sucrose). At 14 days after germination, the observations for adventitious root number and length (cm), shoot length (cm) and germination rate (%) were recorded.
# [10] = system: Oslrk1 gene; assay: Northern-blot of Oslrk1 transcript in WT seedlings treated with sugars; format: in vivo, Oryza sativa; conditions: sugars 175 mM, 48 hours, Mannitol as osmotic control
# Description: Lectins are known as carbohydrate-binding proteins that specifically recognize diverse sugar structures (Vijayan and Chandra, 1999). […] Five different sugars: glucose (Glu), sucrose (Suc), fructose (Fm), Gal and Man were used for this study along with Mannitol as an osmotic control (Methods). Northern-blot hybridizations were carried out on the total RNA isolated from treated seedlings.
# RNA Isolation and Northern-blot Analysis. RNA was isolated from different organs of rice plant at different developmental stages (roots of 10-14 days old seedlings and 2 months old plants, 10-14 days old seedlings, young and mature leaves, panicles at the flowering stage and calli) using a RNeasy Plant mini kit (Qiagen,). […] For the control of RNA quantity, DIG-probe corresponding to rice Actin1 gene was synthesized using the following primers: […]
# The RT-PCRs and Northern blots were repeated at least thrice and similar results were obtained. The quantification of the intensity of the hybridization signals was performed using Quantity ONE 4.5.0 software in Gel doc XR documentation system (Bio-Rad Laboratories, Inc., USA). The level of actual expression was calculated as a ratio of intensity of specific signal (Oslrk1 3′UTR probe) to the intensity of signal of positive control (rice Act1). […]
# [11] = system: WT seeds and seedlings; assay: Germination and growth of WT seeds in galactose/mannose containing media; format: in vivo, Oryza sativa
# Text: as §3, §4, §5
# [12] = system: Oslrk15; assay: RT-PCR of Oslrks in treated 2 week-old seedlings; format: in vivo, Oryza sativa; conditions: treated vs control
# Description: as §1, §2
# [13] = system: Oslrk1 gene; assay: Northern-blot of Oslrk1 transcript in WT seedlings treated with hormones and SA; format: in vivo, Oryza sativa
# Text: Differential Regulation of Oslrk1 Gene Expression by Hormones. Receptor-like kinases were postulated to be involved in signal transduction events as they perceive a signal via a ligand-binding extracellular domain and transmit it through the serine/threonine kinase domain into the cytosol (Shiu and Bleecker, 2001). In order to know possible factors influencing the Oslrk1 gene regulation, we analyzed promoter of the Oslrk1 (1.5 kb) for the presence of cis-acting elements using the program PlantCARE (Lescot et al., 2002). Three TGAGC motifs observed in MeJA inducible genes were found in promoter of the Oslrk1 at the positions −186, −657 and −1190. Apart from these, three GA3 inducible motifs (P-box-CCTTxt) −101, −206 and −740 bp upstream of the Oslrk1 ORF were located. In addition, five salicylic acid inducible motifs (TCA-elementcAGAAa/ga) at the positions of −321, −601, −604, −855 and −1135 were detected. The presence of MeJA, GA and SA responsive cis-elements in the Oslrk1 promoter indicated possible regulatory roles of these factors. The promoter analysis led us to study the effect of different hormones and compounds on the Oslrk1 transcription. The WT seeds were germinated for […] then seedlings were transferred to the medium containing one of the following chemicals: […], MeJA, GA3 or ABA at concentration 100 uM and SA (5 mM) for 24 hours (Materials and Methods). The total RNA isolated from the untreated and treated seedlings were used in Northern-blot hybridization using 3′ UTR of the Oslrk1 gene as a probe. The treatment with GA3 and SA repressed the Oslrk1 gene expression (FIG. 8A) by 2.5 and 3.3 times respectively. […] In order to confirm the level of induction of the Oslrk1 gene by MeJA over time, in another series of experiments, a time course was performed after hormone treatment. Seven day old seedlings were sprayed with 100 uM of MeJA solution and they were harvested in 1, 2, 4, 6, 8, and 12 hours.
# RNA Isolation and Northern-blot Analysis. RNA was isolated from different organs of rice plant at different developmental stages (roots of 10-14 days old seedlings and 2 months old plants, 10-14 days old seedlings, young and mature leaves, panicles at the flowering stage and calli) using a RNeasy Plant mini kit (Qiagen,). The RNA (10 ug) was fractionated on a 1.2% denaturating formaldehyde agarose gel and transferred onto a Hybond-N^+ membrane (Amersham). The bolts were hybridized with dogoxigenin (DIG)-labeled probes in DIG Easy Hyb solution (Roche) at 50° C. After hybridization, membranes were washed twice with 2×SSC and 0.1% SDS for 15 min, then twice with 0.5×SSC and 0.1% SDS for 15 min at 68° C. Detection was carried out according to manufacturer using DIG Wash and Block Buffer set and chemiluminescent substrate CDP Star™ (Roche). DIG-labelled probe corresponded to 3′UTR and lectin domain of Oslrk1 was used. For the control of RNA quantity, DIG-probe corresponding to rice Actin1 gene was synthesized using the following primers: […]
# The RT-PCRs and Northern blots were repeated at least thrice and similar results were obtained. The quantification of the intensity of the hybridization signals was performed using Quantity ONE 4.5.0 software in Gel doc XR documentation system (Bio-Rad Laboratories, Inc., USA). The level of actual expression was calculated as a ratio of intensity of specific signal (Oslrk1 3′UTR probe) to the intensity of signal of positive control (rice Act1).
# Treatment of WT Seedlings with Hormones and Sugars. Two week old WT seedlings were transferred to MS medium containing 100 μM of different hormones, such as Indole 3-Acetic Acid (IAA), Abscisic acid (ABA), Methyl Jasmonate (MeJA), or Gibbrellic Acid (GA3) and 5 mM of Salicylic Acid (SA), and were grown for 24 hours under normal day/light conditions. Total RNA was extracted from root of the seedlings and whole seedlings. […]
# [14] = system: adventitious roots; conditions: rice, Moons et al., 1997; cited from earlier work
# [15] = system: Oslrk1 mutant seedlings; assay: Growth of Oslrk1 mutant seedlings in MeJA or GA3 containing medium; format: in vivo, Oryza sativa
# Description: (§6) In order to study the effect of phytohormones on the Oslrk1 mutant, seeds were grown in medium containing different concentrations of either MeJA ([…]) (FIG. 9A) or GA3 (0.5, 1, 5 and 10 μm) (data not shown) along with WT as a control The number and length of adventitious roots, number of lateral roots and shoot length were measured. […] In the WT seedlings the number of the lateral roots was increased at 5 uM and decreased by at 10 uM.
# (§7) The adventitious root length of WT increased by 50% at 10 uM concentration of GA3, but it was not altered in the mutant (data not shown).
# (§8) Plant Growth Conditions. Surface sterilized rice seeds were germinated and grown in cell culture containers (Phytatray II Sigma cell culture, USA) on 0.8% agar MS medium (Murashige and Skoog medium, Sigma., St. Louis Mo., USA) containing 1% of Suc for 2 weeks under 16/8 hours photoperiod. All chemicals used for the various treatments were purchased from Sigma.
# (§9) Growth of WT and Mutant Seedlings in MeJA Containing Medium WT and mutant seeds were germinated and grown in MS medium (1% Suc) containing different concentrations of MeJA (1 μM, 5 μM, and 10 μM) for two weeks. No MeJA was added in the control. The number and length (cm) of adventitious roots as well as the number of lateral roots were measured.
# [16] = system: WT seedlings; assay: Growth of WT seedlings in MeJA or GA3 containing medium; format: in vivo, Oryza sativa
# Description: as §6, §7, §8, §9
# [17] = seedlings sprayed with 100 uM, time course 1-12 hours
smiles,measurement,setting,value
"O=C[C@H](O)[C@@H](O)[C@@H](O)[C@H](O)CO [Gal, galactose]","Oslrk10 expression by RT-PCR, Sh",[1]; Sh,I
same,"Oslrk2 expression by RT-PCR, Rt",[2]; Rt,I
same,"Oslrk2 expression by RT-PCR, Sh",[2]; Sh,R
same,"Oslrk4 expression by RT-PCR, Sh",[3],I
same,"Oslrk11 expression by RT-PCR, Rt",[4]; Rt,I
same,"Oslrk11 expression by RT-PCR, Sh",[4]; Sh,R
same,"Oslrk5 expression by RT-PCR, Rt",[5],I
same,"Oslrk5 expression by RT-PCR, Sh",[5],I
same,"Oslrk8 expression by RT-PCR, Sh",[6]; Sh,I
same,"Oslrk9 expression by RT-PCR, Sh",[7],I
same,"Oslrk14 expression by RT-PCR, Sh",[8],I
same,length of adventitious roots,"[9]; Oslrk1 mutant, 1.0% Gal",severe reduction
same,number of the adventitious roots reduced by,"[9]; Oslrk1 mutant, 1.0% Gal",85%
same,shoot length decreased by,"[9]; Oslrk1 mutant, 1.0% Gal",half
same,germination rate,"[9]; Oslrk1 mutant, Gal (1.0%)",30%
same,behavior of the mutant compared with the WT upon treatment,[9]; sugar 0.1% to 1% along with Suc,differential response
same,Oslrk1 expression in response to sugars,[10],Repression
same,length of adventitious roots,[11]; 1.0% Gal,reduced
same,number of the adventitious roots,[11]; 1.0% Gal,more or less same
same,shoot length decreased by,[11]; 1.0% Gal,15%
same,germination rate,[11]; Gal (1.0%),85%
"O=C(O)Cc1c[nH]c2ccccc12 [IAA, Indole 3-Acetic Acid]","Oslrk10 expression by RT-PCR, Rt",[1]; Rt,I
same,"Oslrk4 expression by RT-PCR, Rt",[3],I
same,"Oslrk5 expression by RT-PCR, Rt",[5],I
same,"Oslrk15 expression by RT-PCR, Rt",[12],I
same,"Oslrk8 expression by RT-PCR, Rt",[6]; Rt,I
same,effect on Oslrk1 transcription,"[13]; 100 uM, 24 hours, WT seedlings",no significant effect
"CC/C=C\CC1C(=O)CCC1CC(=O)OC (stereo not shown) [MeJA, Methyl Jasmonate]","Oslrk4 expression by RT-PCR, Rt",[3],I
same,"Oslrk4 expression by RT-PCR, Sh",[3],R
same,"Oslrk5 expression by RT-PCR, Rt",[5],I
same,"Oslrk5 expression by RT-PCR, Sh",[5],R
same,"Oslrk1 transcript, intensity of the hybridization signal increased by","[13]; 100 uM, 24 hours, WT seedlings, compared to the control",3.2 times
same,maximum induction of Oslrk1 expression relative to untreated sample,[13]; [17],approximately 3 times
same,time of maximum Oslrk1 induction,[13]; [17],8 h
same,concentration at which development of adventitious roots was inhibited,[14],more than 3 μM
same,number of adventitious roots,[15]; MeJA 10 uM,opposite to the effect observed at 5 uM
same,number of lateral roots,"[15]; MeJA 1, 5, 10 uM",no significant changes
same,shoot length,"[15]; MeJA 1, 5, 10 uM, two weeks",decreased
same,number of adventitious roots,[15]; MeJA up to 5 uM,gradually increased
same,length of adventitious roots,[15]; MeJA up to 10 uM,not reduced significantly
same,number of the lateral roots,[16]; MeJA 5 uM,increased
same,number of adventitious roots,[16]; MeJA 10 uM,opposite to the effect observed at 5 uM
same,number of the lateral roots,[16]; MeJA 10 uM,decreased
same,reduction in length of adventitious roots,[16]; MeJA 10 uM,approximately 75%
same,shoot length,"[16]; MeJA 1, 5, 10 uM, two weeks",decreased
same,number of adventitious roots,[16]; MeJA up to 5 uM,gradually increased
